Blank lines part the entries; values can stand above or below the compound they belong to. Active and inactive are the calls of the source. The calls are words filed in the database; no cut-off is given here.
Experiments:
[1] = test system: HT-29; assay: Cytotoxicity against human HT-29 cells after 72 hrs by MTT assay; format: functional, cell-based; conditions: HT-29, 72 h
[2] = test system: B16; assay: Cytotoxicity against mouse B16 cells after 72 hrs by MTT assay; format: functional, cell-based; conditions: B16, 72 h
[3] = Cytotoxicity against human ME180 cells after 72 hrs by MTT assay; format: functional, cell-based; conditions: ME-180, 72 h
[4] = test system: COLO 205; assay: Cytotoxicity against human COLO205 cells after 72 hrs by MTT assay; format: functional, cell-based; conditions: COLO 205, 72 h
[5] = test system: PC-3; assay: Cytotoxicity against human PC3 cells after 72 hrs by MTT assay; format: functional, cell-based; conditions: PC-3, 72 h
[6] = test system: HeLa; assay: Cytotoxicity against human HeLa cells after 72 hrs by MTT assay; format: functional, cell-based
[7] = test system: DU-145; assay: Cytotoxicity against human DU145 cells after 72 hrs by MTT assay; format: functional, cell-based; conditions: DU-145, 72 h
[8] = test system: HeLa; assay: Induction of apoptosis in human HeLa cells assessed as caspase-3 activation at 2 uM after 48 hrs by Ac-DEVD fluorescence assay relative to control; format: functional
[9] = test system: HeLa; assay: Cell cycle arrest in human HeLa cells assessed as accumulation at G2/M phase at 0.5 uM after 24 hrs by propidium iodide staining-based FACS analysis (reference value: 21.10%); format: functional
[10] = test system: HeLa; assay: Induction of apoptosis in human HeLa cells assessed as nuclear fragmentation at 1 uM after 48 hrs by Hoechst 33342 staining-based fluorescence microscopic analysis; format: functional, cell-based
[11] = test system: HeLa; assay: Cell cycle arrest in human HeLa cells assessed as accumulation at sub-G1 phase at 0.5 uM after 24 hrs by propidium iodide staining-based FACS analysis (reference value: 3.07%); format: functional
[12] = biological target: T1, Tubulin (Homo sapiens) (UniProt P68371+Q9H4B7+P0DPH7+P68366+Q13509+Q71U36+P04350+Q3ZCM7+P07437+P68363+Q9BQE3+Q6PEY2+Q13885+Q9BVA1+Q9BUF5); assay: Inhibition of tubulin polymerization in human HeLa cells assessed as disruption of microtubule organization at 1 uM after 48 hrs by immunohistochemical analysis; format: cell-based
[13] = test system: HeLa; assay: Induction of apoptosis in human HeLa cells assessed as presence of apoptotic bodies at 1 uM after 48 hrs by Hoechst 33342 staining-based fluorescence microscopic analysis; format: functional, cell-based
[14] = test system: HeLa; assay: Cell cycle arrest in human HeLa cells assessed as accumulation at G1 phase at 0.5 uM after 24 hrs by propidium iodide staining-based FACS analysis (reference value: 71.21%); format: functional
[15] = biological target: T1, Tubulin (Homo sapiens); assay: Inhibition of tubulin (unknown origin) polymerization at 5 uM measured for 1 hr by fluorescence assay in presence of GTP relative to control; format: protein-complex assay
[16] = test system: HeLa; assay: Induction of apoptosis in human HeLa cells assessed as […] condensation at 1 uM after 48 hrs by Hoechst 33342 staining-based fluorescence microscopic analysis; format: functional, cell-based
[17] = test system: HeLa; assay: Induction of apoptosis in human HeLa cells assessed as DNA fragmentation at 1 to 2 uM after 48 hrs by agarose gel electrophoresis; format: functional, cell-based
[18] = biological target: Tubulin; assay: Inhibition of tubulin (unknown origin) polymerization measured for 1 hr by fluorescence assay in presence of GTP; format: protein-complex assay, Homo sapiens
[19] = test system: HeLa; assay: Cell cycle arrest in human HeLa cells assessed as accumulation at S phase at 0.5 uM after 24 hrs by propidium iodide staining-based FACS analysis (reference value: 4.62%); format: functional

SMILES: COc1ccc(/C=C/C(=O)Nc2cc(C(=O)c3cc(OC)c(OC)c(OC)c3)cc(OC)c2OC)cc1
IC50 [1]: 3.8 µM
IC50 [2]: 9.4 µM
IC50 [3]: 12.5 µM
IC50 [4]: 4.8 µM
IC50 [5]: 6.3 µM
IC50 [6]: 11.2 µM
IC50 [7]: 10.4 µM

SMILES: COc1ccc(C(=O)c2cc(OC)c(OC)c(OC)c2)cc1NC(=O)/C=C/c1cccc(OC(F)(F)F)c1
IC50 [1]: 5.2 µM
IC50 [2]: 6.3 µM
IC50 [3]: 9.2 µM
IC50 [4]: 7.9 µM
IC50 [5]: 7.7 µM
IC50 [6]: 7.9 µM
IC50 [7]: 10.2 µM

SMILES: COc1cc(C(=O)c2cc(OC)c(OC)c(OC)c2)cc(N)c1OC
IC50 [1]: 3.8 µM
IC50 [2]: 12.5 µM
IC50 [3]: 12.2 µM
IC50 [4]: 4.4 µM
IC50 [5]: 7.4 µM
IC50 [6]: 13.5 µM
IC50 [7]: 10 µM

SMILES: C#CCOc1cccc(/C=C/C(=O)Nc2cc(C(=O)c3cc(OC)c(OC)c(OC)c3)cc(OC)c2OC)c1
IC50 [1]: 8.1 µM
IC50 [2]: 5.1 µM
IC50 [3]: 8.4 µM
IC50 [4]: 11.2 µM
IC50 [5]: 10.1 µM
IC50 [6]: 7.3 µM
IC50 [7]: 13.5 µM

SMILES: COc1cc(C(=O)c2cc(OC)c(OC)c(OC)c2)cc(NC(=O)/C=C/c2cc(F)c(F)c(F)c2)c1OC
IC50 [1]: 3.3 µM
IC50 [2]: 5.2 µM
IC50 [3]: 7.1 µM
IC50 [4]: 4.3 µM
IC50 [5]: 7.4 µM
IC50 [6]: 5 µM
IC50 [7]: 7.9 µM

SMILES: COc1ccc(/C=C/C(=O)Nc2cc(C(=O)c3cc(OC)c(OC)c(OC)c3)ccc2OC)cc1
IC50 [1]: 5.01 µM
IC50 [2]: 8.7 µM
IC50 [3]: 11.8 µM
IC50 [4]: 10.9 µM
IC50 [5]: 11.1 µM
IC50 [6]: 10.7 µM
IC50 [7]: 12.8 µM

inhibition [12]: Active
inhibition [15]: 60.5%
IC50 [18]: 0.6 µM
SMILES: COc1ccc(C(=O)c2cc(OC)c(OC)c(OC)c2)cc1NC(=O)/C=C/c1ccc(F)cc1
IC50 [1]: 1.8 µM
fold change (FC) [8]: 5
Activity [9]: 36.62%
IC50 [2]: 0.4 µM
IC50 [3]: 0.3 µM
IC50 [4]: 3.4 µM
IC50 [5]: 3.2 µM
Activity [10]: Active
Activity [11]: 2.96%
Activity [13]: Active
Activity [14]: 53.02%
IC50 [6]: 0.06 µM
Activity [16]: Active
Activity [17]: Active
IC50 [7]: 3.9 µM
Activity [19]: 7.4%

inhibition [12]: Active
inhibition [15]: 59.4%
IC50 [18]: 0.7 µM
SMILES: COc1ccc(C(=O)c2cc(OC)c(OC)c(OC)c2)cc1NC(=O)/C=C/c1ccc(C(F)(F)F)cc1
IC50 [1]: 1.6 µM
fold change (FC) [8]: 5
Activity [9]: 38.82%
IC50 [2]: 0.1 µM
IC50 [3]: 0.8 µM
IC50 [4]: 2.6 µM
IC50 [5]: 3.5 µM
Activity [10]: Active
Activity [11]: 5.66%
Activity [13]: Active
Activity [14]: 49.59%
IC50 [6]: 0.09 µM
Activity [16]: Active
Activity [17]: Active
IC50 [7]: 4.3 µM
Activity [19]: 5.92%

SMILES: COc1ccc(C(=O)c2cc(OC)c(OC)c(OC)c2)cc1NC(=O)/C=C/c1ccc(N)cc1
IC50 [1]: 5.6 µM
IC50 [2]: 7.9 µM
IC50 [3]: 16 µM
IC50 [4]: 10.3 µM
IC50 [5]: 15.9 µM
IC50 [6]: 14.7 µM
IC50 [7]: 13.5 µM

SMILES: COc1cc(C(=O)c2cc(OC)c(OC)c(OC)c2)cc(NC(=O)/C=C/c2ccc(C(F)(F)F)cc2)c1OC
IC50 [1]: 1.9 µM
IC50 [2]: 3.3 µM
IC50 [3]: 3.6 µM
IC50 [4]: 2.5 µM
IC50 [5]: 4.2 µM
IC50 [6]: 3 µM
IC50 [7]: 5.1 µM

SMILES: COc1ccc(/C=C/C(=O)Nc2cc(C(=O)c3cc(OC)c(OC)c(OC)c3)cc(OC)c2OC)cc1OC
IC50 [1]: 2.3 µM
IC50 [2]: 1.3 µM
IC50 [3]: 6.7 µM
IC50 [4]: 5.7 µM
IC50 [5]: 5.4 µM
IC50 [6]: 2.7 µM
IC50 [7]: 7.8 µM

SMILES: COc1cccc(/C=C/C(=O)Nc2cc(OC)c(OC)c(OC)c2)c1
IC50 [1]: 2.4 µM
IC50 [2]: 8.5 µM
IC50 [3]: 17.3 µM
IC50 [4]: 4.2 µM
IC50 [5]: 2.1 µM
IC50 [6]: 12.3 µM
IC50 [7]: 3.2 µM

SMILES: COc1cc(/C=C/C(=O)Nc2cc(C(=O)c3cc(OC)c(OC)c(OC)c3)ccc2OC)ccc1F
IC50 [1]: 7.7 µM
IC50 [2]: 16.3 µM
IC50 [3]: 15.5 µM
IC50 [4]: 11.8 µM
IC50 [5]: 14.1 µM
IC50 [6]: 13.6 µM
IC50 [7]: 12.1 µM

inhibition [12]: Active
inhibition [15]: 58.3%
IC50 [18]: 0.6 µM
SMILES: COc1ccc(C(=O)c2cc(OC)c(OC)c(OC)c2)cc1N
IC50 [1]: 0.05 µM
fold change (FC) [8]: 5
Activity [9]: 37.36%
IC50 [2]: 0.03 µM
IC50 [3]: 0.08 µM
IC50 [4]: 0.2 µM
IC50 [5]: 1.1 µM
Activity [10]: Active
Activity [11]: 4.56%
Activity [13]: Active
Activity [14]: 53%
IC50 [6]: 0.06 µM
Activity [16]: Active
IC50 [7]: 2.1 µM
Activity [19]: 5.07%

SMILES: COc1ccc(C(=O)c2cc(OC)c(OC)c(OC)c2)cc1NC(=O)/C=C/c1cc(OC)c(OC)c(OC)c1
IC50 [1]: 3.1 µM
IC50 [2]: 1.2 µM
IC50 [3]: 2.1 µM
IC50 [4]: 5.2 µM
IC50 [5]: 3.9 µM
IC50 [6]: 1.5 µM
IC50 [7]: 6.3 µM

SMILES: COc1cccc(/C=C/C(=O)Nc2cc(C(=O)c3cc(OC)c(OC)c(OC)c3)cc(OC)c2OC)c1
IC50 [1]: 8.7 µM
IC50 [2]: 6.7 µM
IC50 [3]: 8.6 µM
IC50 [4]: 10.7 µM
IC50 [5]: 13.3 µM
IC50 [6]: 6.9 µM
IC50 [7]: 12.5 µM

SMILES: COc1ccc(C(=O)c2cc(OC)c(OC)c(OC)c2)cc1NC(=O)/C=C/c1ccc(OC)c(OC)c1
IC50 [1]: 2.5 µM
IC50 [2]: 6.3 µM
IC50 [3]: 8.9 µM
IC50 [4]: 8.2 µM
IC50 [5]: 7.5 µM
IC50 [6]: 7.8 µM
IC50 [7]: 10.2 µM

SMILES: COc1cc(C(=O)c2cc(OC)c(OC)c(OC)c2)cc(NC(=O)/C=C/c2cc(OC)c(OC)c(OC)c2)c1OC
IC50 [1]: 3.1 µM
IC50 [2]: 2.5 µM
IC50 [3]: 3.9 µM
IC50 [4]: 5.3 µM
IC50 [5]: 4.8 µM
IC50 [6]: 2.5 µM
IC50 [7]: 6.6 µM

SMILES: COc1ccc(C(=O)c2cc(OC)c(OC)c(OC)c2)cc1NC(=O)/C=C/c1ccc([N+](=O)[O-])cc1
IC50 [1]: 5.1 µM
IC50 [2]: 6.4 µM
IC50 [3]: 9.3 µM
IC50 [4]: 11.4 µM
IC50 [5]: 10.4 µM
IC50 [6]: 8.5 µM
IC50 [7]: 15.6 µM

SMILES: COc1ccc(/C=C/C(=O)Nc2cc(C(=O)c3cc(OC)c(OC)c(OC)c3)cc(OC)c2OC)cc1N
IC50 [1]: 7.7 µM
IC50 [2]: 12.7 µM
IC50 [3]: 13.9 µM
IC50 [4]: 10.1 µM
IC50 [5]: 11.1 µM
IC50 [6]: 15.8 µM
IC50 [7]: 12.7 µM

SMILES: COc1ccc(C(=O)c2cc(OC)c(OC)c(OC)c2)cc1NC(=O)/C=C/c1ccc(F)c(F)c1
IC50 [1]: 4.2 µM
IC50 [2]: 6.5 µM
IC50 [3]: 8.9 µM
IC50 [4]: 6.02 µM
IC50 [5]: 8.3 µM
IC50 [6]: 8.1 µM
IC50 [7]: 10.2 µM

SMILES: C#CCOc1cccc(/C=C/C(=O)Nc2cc(C(=O)c3cc(OC)c(OC)c(OC)c3)ccc2OC)c1
IC50 [1]: 7.4 µM
IC50 [2]: 12.2 µM
IC50 [3]: 15.3 µM
IC50 [4]: 13.4 µM
IC50 [5]: 13.1 µM
IC50 [6]: 14 µM
IC50 [7]: 15.8 µM

SMILES: COc1cc(C(=O)c2cc(OC)c(OC)c(OC)c2)cc(NC(=O)/C=C/c2ccc(F)cc2)c1OC
IC50 [1]: 1.8 µM
IC50 [2]: 0.9 µM
IC50 [3]: 1 µM
IC50 [4]: 3.1 µM
IC50 [5]: 4.1 µM
IC50 [6]: 0.9 µM
IC50 [7]: 6.7 µM

SMILES: COc1cccc(/C=C/C(=O)Nc2cc(C(=O)c3cc(OC)c(OC)c(OC)c3)ccc2OC)c1
IC50 [1]: 1.9 µM
IC50 [2]: 3.1 µM
IC50 [3]: 4.3 µM
IC50 [4]: 5.1 µM
IC50 [5]: 4.7 µM
IC50 [6]: 3.1 µM
IC50 [7]: 6.2 µM
